# Results published in ChEMBL document CHEMBL1201862, “PubChem BioAssay data set” (2004).
# Active and inactive are the calls of the source.
# Key:
# Streptokinase A = biological target: T1, Streptokinase A (Streptococcus pyogenes serotype M1, UniProt P10520); assay: viability-normalized secreted streptokinase activity reduction – plasminogen activation absorbance, OD405, dose response (AID 1914); type: functional, Streptococcus pyogenes M1 GAS;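 also: secreted streptokinase activity via plasminogen activation per viability signal from cell pellet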
# T1 sequence (P10520 whole entry): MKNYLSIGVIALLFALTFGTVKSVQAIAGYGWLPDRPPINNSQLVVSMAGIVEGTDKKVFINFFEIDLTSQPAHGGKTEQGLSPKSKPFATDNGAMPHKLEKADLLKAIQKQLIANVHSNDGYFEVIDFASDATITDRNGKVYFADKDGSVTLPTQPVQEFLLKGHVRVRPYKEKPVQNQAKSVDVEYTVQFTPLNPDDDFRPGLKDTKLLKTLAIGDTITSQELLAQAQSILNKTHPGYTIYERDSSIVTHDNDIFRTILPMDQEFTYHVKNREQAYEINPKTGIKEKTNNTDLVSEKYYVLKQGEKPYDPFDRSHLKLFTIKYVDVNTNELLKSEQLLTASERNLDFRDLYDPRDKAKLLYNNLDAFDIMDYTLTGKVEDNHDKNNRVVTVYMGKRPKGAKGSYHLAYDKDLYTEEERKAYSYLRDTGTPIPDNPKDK
# [1] = system: Streptococcus sp. 'group A'; assay: Streptococcus pyogenes SK(-)GAS viability under kanamycin – luminescence, BacTiterGlo, confirmation, counter-screen for streptokinase expression inhibitor project, dose response (AID 1900); type: functional, organism-based
# Streptococcus = assay: GAS UMAA2166 growth inhibition – luminescence, BacTiterGlo, counter-screen for streptokinase expression inhibitor project, dose response (AID 1915); type: functional, organism-based;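 also: potency for reduction of bacterial viability or growth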
# HEK293 [2] = assay: cells; type: functional, cell-based; conditions: Homo sapiens
# [3] = biological target: Nucleotide-binding oligomerization domain-containing protein 2 (Homo sapiens, UniProt Q9HC29); assay: inhibition of NOD2-driven NF-kB reporter – cell-based, luminescence, uHTS, HEK293 (AID 1566); type: functional
# HEK293 [4] = assay: NOD2 signaling inhibitors in MDP-stimulated cells, cell-based, uHTS, luminescence (AID 2001); type: functional; conditions: Homo sapiens
# HEK293 [5] = assay: cells; type: functional, cell-based; conditions: Homo sapiens; remark: listed apart in the source
# HEK293 [6] = assay: cells; type: functional, cell-based; conditions: Homo sapiens; remark: listed apart in the source
# HEK293 [7] = assay: inhibition of NOD1-driven NF-kB reporter – cell-based, luminescence, uHTS, primary screen (AID 1578); type: functional; conditions: Homo sapiens
# [8] = biological target: T2, Corticotropin-releasing factor receptor 2/Corticotropin-releasing factor-binding protein (Homo sapiens, UniProt P24387+Q13324); assay: activators of CRF receptor 2 with binding protein – uHTS hits, confirmation (AID 602473); type: functional; conditions: read-out: EC50_Mean
# T2 sequence (Q13324 whole entry): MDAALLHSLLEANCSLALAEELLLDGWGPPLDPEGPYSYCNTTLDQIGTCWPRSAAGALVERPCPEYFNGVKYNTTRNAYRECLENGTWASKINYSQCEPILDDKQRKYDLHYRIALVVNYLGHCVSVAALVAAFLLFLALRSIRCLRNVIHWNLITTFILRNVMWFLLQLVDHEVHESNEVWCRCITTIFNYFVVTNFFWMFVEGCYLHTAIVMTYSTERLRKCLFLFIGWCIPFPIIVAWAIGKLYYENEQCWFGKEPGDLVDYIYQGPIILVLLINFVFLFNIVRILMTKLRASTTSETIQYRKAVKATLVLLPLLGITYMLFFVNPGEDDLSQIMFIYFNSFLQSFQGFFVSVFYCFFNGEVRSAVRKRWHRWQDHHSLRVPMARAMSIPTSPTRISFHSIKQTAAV
# T2 sequence (P24387 whole entry): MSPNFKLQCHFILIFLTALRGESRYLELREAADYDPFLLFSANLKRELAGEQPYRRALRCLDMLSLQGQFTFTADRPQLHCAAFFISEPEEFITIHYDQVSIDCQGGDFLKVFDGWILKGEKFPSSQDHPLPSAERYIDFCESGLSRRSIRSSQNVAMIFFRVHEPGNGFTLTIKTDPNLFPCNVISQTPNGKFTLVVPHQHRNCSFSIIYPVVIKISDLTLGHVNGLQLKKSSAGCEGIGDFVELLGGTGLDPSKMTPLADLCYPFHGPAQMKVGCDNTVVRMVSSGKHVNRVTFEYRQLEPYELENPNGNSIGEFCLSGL
# [9] = A Cell Based Secondary Assay To Explore Cytotoxicity of Compounds that Sensitize Mycobacterium Tuberculosis to Beta-Lactam Antibiotics.; type: functional
# [10] = biological target: T2, Corticotropin-releasing factor receptor 2/Corticotropin-releasing factor-binding protein; assay: Dose Response confirmation of uHTS hits for small molecule antagonists of the CRF-binding protein and CRF-R2 receptor complex.; type: functional; conditions: read-out: IC50_Mean
# Estrogen receptor beta [11] = biological target: T3, Estrogen receptor beta (Homo sapiens, UniProt Q92731); assay: blockers of SRC-3 recruitment to ERβ – biochemical, ELISA, streptavidin-HRP readout, orthogonal assay, confirmation (AID 1060)
# Estrogen receptor = biological target: T4, Estrogen receptor (Homo sapiens, UniProt P03372);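 also: potency for inhibiting coactivator peptide recruitment to the receptor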
# T4 sequence (P03372 whole entry): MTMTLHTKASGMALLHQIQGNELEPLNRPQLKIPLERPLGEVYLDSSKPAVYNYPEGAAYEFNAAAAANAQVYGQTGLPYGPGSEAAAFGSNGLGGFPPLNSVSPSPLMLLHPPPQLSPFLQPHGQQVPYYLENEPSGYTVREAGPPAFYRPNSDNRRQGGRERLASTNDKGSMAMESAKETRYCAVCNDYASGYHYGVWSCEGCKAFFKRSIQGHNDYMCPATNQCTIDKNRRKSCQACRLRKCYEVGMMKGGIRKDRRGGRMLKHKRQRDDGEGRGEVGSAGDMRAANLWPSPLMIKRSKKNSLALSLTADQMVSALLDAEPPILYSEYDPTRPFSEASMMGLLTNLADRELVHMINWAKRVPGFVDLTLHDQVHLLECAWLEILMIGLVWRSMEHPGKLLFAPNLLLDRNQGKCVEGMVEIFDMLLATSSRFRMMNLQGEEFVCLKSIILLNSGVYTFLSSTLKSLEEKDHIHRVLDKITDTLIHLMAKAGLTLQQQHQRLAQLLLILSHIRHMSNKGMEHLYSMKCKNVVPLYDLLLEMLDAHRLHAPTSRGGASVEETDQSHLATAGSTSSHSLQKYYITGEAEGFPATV
# Estrogen receptor beta [12] = biological target: T3, Estrogen receptor beta
# [13] = viability loss in THP-1 monocytes – THP-1 cells, cytotoxicity control for Vif-APOBEC3G degradation inhibitor project, dose response (AID 1117359); type: functional; conditions: THP-1
# [14] = biological target: T5, Replicative DNA helicase DnaB (Mycobacterium tuberculosis, UniProt P9WMR3); assay: DnaB intein splicing inhibitors, dose response, biochemical, cell-free fluorescence (AID 449749); type: functional
# T5 sequence (P9WMR3 whole entry): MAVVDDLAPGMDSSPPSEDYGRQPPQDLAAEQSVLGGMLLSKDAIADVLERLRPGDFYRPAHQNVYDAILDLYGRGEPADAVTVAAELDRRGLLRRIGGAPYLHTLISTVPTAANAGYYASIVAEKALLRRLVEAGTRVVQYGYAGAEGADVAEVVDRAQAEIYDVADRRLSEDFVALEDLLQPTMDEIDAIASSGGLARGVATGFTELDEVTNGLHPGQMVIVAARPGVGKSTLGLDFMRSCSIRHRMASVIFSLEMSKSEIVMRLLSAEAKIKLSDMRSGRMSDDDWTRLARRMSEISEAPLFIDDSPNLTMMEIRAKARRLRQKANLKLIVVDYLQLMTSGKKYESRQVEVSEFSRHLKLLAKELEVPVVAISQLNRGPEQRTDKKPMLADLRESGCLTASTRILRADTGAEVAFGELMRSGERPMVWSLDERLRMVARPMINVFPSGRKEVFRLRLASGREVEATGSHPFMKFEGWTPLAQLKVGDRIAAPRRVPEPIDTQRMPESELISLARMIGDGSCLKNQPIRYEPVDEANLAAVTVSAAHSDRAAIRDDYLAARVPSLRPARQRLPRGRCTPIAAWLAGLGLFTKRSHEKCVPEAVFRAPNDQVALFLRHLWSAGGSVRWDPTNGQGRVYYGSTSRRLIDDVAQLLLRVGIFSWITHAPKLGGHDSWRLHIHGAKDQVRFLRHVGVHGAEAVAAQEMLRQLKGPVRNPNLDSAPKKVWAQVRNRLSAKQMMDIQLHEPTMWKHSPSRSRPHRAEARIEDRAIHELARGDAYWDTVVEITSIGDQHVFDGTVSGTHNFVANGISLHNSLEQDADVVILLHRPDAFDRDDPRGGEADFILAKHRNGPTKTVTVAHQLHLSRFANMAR
# Protein RecA = biological target: T6, Protein RecA (Mycobacterium tuberculosis, UniProt P9WHJ3); assay: Fluorescence Cell-Free Homogeneous Dose Retest to Identify Inhibitors of RecA-Intein Splicing Activity. [Related pubchem assays (depositor defined):AID2097, AID2223, AID489010, AID492950]; type: functional
# T6 sequence (P9WHJ3 whole entry): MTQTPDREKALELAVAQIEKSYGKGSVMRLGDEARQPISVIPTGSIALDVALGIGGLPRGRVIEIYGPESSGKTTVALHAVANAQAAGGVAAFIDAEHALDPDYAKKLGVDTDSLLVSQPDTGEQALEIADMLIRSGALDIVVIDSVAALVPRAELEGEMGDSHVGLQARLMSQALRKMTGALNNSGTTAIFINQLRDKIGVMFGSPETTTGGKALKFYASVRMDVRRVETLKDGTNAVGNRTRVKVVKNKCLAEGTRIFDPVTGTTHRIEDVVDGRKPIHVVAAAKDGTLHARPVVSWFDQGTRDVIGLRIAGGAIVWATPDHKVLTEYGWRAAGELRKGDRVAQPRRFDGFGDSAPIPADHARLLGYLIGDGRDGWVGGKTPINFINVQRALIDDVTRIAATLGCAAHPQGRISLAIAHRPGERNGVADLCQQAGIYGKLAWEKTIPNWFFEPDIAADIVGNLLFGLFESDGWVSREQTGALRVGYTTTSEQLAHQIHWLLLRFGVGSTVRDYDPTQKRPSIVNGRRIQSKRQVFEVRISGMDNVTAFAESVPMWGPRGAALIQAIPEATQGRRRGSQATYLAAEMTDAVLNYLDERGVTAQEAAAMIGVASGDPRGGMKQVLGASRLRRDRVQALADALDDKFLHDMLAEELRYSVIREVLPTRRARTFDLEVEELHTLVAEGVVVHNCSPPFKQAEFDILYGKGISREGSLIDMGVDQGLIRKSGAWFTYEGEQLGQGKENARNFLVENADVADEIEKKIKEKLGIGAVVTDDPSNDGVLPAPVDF
# [15] = biological target: G-protein coupled receptor 55 (Homo sapiens, UniProt Q9Y2T6); assay: selective activators of receptor GPR55 – imaging, U2OS cells, beta-arrestin-GFP redistribution, primary screen (AID 1961); type: functional
# [16] = biological target: Eukaryotic translation initiation factor 4E (Mus musculus, UniProt P63073); assay: blockers of eIF4G binding by eIF4E – biochemical, TR-FRET, dose response (AID 855); type: functional;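 also: potency for disrupting eIF4E binding to eIF4GI seen as loss of FRET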
# [17] = biological target: Induced myeloid leukemia cell differentiation protein Mcl-1 (Homo sapiens, UniProt Q07820); type: functional
# [18] = biological target: DNA (cytosine-5)-methyltransferase 1 (Homo sapiens, UniProt P26358); assay: inhibition of DNA methylation by DNMT1 – biochemical, fluorescent molecular beacon, confirmation (AID 602386); type: functional
# Cytochrome P450 2C9 = Cytochrome P450 2C9 (Homo sapiens, UniProt P11712)
# Chain of Cytochrome P450 2C9 (P11712 whole entry): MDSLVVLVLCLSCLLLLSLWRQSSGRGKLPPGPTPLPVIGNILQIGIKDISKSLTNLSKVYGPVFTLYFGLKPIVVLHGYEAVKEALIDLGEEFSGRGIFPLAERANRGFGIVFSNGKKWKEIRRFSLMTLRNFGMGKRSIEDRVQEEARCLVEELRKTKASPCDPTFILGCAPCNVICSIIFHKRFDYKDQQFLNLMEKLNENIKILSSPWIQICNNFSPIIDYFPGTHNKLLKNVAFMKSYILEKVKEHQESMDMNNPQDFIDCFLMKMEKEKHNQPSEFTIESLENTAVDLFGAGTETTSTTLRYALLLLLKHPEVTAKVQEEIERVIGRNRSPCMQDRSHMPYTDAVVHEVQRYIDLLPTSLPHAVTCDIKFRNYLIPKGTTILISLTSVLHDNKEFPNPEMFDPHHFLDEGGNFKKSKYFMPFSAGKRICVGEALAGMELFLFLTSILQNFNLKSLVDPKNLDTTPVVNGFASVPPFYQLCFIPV
# Chain of G-protein coupled receptor 55 (Q9Y2T6 whole entry): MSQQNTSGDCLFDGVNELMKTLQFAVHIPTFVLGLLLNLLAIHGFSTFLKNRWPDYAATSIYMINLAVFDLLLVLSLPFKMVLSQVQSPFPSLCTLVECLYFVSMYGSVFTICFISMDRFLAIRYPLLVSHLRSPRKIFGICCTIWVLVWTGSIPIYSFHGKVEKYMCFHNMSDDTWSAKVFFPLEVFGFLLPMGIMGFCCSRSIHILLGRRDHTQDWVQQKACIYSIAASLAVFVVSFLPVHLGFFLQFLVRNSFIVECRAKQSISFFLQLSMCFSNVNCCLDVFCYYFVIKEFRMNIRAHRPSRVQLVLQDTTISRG
# Chain of Nucleotide-binding oligomerization domain-containing protein 2 (Q9HC29 whole entry, the tested form may be a part): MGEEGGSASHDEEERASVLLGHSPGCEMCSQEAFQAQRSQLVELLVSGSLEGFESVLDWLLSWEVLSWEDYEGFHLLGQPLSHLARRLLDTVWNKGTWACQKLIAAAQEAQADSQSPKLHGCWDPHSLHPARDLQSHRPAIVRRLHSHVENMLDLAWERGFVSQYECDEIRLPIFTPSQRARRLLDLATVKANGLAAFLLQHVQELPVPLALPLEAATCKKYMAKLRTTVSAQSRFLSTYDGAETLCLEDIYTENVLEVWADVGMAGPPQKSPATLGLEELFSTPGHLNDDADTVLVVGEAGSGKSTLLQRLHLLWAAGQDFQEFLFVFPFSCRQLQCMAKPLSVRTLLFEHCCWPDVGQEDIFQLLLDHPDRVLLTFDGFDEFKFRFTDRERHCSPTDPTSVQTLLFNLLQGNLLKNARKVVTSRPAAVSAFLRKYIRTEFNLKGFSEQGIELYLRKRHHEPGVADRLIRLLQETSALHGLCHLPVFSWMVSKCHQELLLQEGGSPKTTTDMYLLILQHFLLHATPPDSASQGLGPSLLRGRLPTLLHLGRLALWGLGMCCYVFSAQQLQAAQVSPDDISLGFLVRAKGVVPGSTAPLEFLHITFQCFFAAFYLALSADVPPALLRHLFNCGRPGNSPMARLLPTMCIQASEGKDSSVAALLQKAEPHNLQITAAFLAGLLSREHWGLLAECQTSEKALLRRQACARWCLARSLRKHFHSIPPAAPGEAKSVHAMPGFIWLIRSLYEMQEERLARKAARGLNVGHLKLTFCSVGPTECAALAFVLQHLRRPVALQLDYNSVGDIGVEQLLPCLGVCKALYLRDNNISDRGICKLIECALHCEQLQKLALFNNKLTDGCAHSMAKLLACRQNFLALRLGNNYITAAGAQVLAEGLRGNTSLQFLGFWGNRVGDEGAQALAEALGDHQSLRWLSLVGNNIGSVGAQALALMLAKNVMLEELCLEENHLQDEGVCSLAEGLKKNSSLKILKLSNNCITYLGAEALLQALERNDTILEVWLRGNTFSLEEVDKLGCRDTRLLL
# T3 sequence (Q92731 whole entry): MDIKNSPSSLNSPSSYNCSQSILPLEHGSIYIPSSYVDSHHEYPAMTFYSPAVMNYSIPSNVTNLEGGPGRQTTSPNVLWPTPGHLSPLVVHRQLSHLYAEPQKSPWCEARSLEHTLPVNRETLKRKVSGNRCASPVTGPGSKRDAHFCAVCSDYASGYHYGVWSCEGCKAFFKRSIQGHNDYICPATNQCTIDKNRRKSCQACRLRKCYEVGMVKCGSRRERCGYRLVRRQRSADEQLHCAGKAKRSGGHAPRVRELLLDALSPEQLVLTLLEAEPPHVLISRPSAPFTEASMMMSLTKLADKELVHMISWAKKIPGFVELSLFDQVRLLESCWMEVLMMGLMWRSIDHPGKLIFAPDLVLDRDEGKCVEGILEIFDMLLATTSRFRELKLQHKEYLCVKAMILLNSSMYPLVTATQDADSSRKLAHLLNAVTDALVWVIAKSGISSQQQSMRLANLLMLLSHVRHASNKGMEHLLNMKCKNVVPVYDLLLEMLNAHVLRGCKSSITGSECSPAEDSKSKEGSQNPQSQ
# Chain of Induced myeloid leukemia cell differentiation protein Mcl-1 (Q07820 whole entry): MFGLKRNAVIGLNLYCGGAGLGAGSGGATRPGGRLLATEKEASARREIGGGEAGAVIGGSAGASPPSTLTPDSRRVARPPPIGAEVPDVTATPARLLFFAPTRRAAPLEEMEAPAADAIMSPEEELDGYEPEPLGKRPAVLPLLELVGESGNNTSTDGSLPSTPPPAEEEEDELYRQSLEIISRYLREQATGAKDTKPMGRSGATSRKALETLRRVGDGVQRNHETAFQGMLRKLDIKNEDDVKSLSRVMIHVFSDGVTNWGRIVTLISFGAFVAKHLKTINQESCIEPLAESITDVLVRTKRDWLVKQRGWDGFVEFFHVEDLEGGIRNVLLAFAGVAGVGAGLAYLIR
# Chain of DNA (cytosine-5)-methyltransferase 1 (P26358 whole entry): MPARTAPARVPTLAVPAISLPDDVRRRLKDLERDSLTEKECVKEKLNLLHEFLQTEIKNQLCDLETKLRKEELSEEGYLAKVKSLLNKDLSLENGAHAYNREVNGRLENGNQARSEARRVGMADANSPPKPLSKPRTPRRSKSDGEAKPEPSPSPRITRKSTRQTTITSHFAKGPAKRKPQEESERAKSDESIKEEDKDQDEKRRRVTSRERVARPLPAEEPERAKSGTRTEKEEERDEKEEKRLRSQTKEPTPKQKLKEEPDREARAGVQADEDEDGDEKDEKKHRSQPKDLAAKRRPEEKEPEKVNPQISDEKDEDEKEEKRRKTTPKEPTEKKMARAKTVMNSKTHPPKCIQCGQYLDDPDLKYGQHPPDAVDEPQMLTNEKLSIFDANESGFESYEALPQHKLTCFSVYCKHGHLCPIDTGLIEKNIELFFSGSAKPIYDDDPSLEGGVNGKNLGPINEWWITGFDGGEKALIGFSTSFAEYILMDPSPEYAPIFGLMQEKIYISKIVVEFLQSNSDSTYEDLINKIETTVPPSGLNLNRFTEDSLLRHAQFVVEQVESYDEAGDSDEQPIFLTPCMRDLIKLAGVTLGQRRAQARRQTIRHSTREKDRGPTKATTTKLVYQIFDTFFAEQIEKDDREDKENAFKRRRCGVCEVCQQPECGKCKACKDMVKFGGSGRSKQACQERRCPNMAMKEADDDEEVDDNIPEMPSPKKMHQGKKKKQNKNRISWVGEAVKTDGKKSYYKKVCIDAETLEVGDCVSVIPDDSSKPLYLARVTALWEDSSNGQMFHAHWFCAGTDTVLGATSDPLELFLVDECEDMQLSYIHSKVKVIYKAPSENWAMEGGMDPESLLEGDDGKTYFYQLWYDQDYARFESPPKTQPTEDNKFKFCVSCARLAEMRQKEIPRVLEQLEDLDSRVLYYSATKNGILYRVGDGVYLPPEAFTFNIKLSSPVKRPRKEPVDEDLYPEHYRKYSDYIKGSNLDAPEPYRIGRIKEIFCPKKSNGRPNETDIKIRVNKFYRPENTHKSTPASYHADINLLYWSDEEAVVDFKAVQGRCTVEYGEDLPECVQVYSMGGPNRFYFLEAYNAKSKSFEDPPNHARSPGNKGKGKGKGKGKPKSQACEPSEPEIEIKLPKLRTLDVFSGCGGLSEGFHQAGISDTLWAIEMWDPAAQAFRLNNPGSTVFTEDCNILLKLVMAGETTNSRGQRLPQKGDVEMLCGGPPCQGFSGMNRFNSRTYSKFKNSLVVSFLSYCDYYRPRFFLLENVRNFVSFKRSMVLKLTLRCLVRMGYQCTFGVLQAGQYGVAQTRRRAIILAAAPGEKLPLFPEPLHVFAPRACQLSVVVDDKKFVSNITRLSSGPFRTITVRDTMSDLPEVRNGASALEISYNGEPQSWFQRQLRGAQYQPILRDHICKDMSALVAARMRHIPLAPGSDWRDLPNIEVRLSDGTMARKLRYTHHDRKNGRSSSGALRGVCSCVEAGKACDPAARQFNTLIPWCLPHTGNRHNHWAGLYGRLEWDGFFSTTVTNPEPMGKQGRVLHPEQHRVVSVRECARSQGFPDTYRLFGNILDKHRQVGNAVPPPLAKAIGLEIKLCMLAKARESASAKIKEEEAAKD
# Chain of Eukaryotic translation initiation factor 4E (P63073 whole entry): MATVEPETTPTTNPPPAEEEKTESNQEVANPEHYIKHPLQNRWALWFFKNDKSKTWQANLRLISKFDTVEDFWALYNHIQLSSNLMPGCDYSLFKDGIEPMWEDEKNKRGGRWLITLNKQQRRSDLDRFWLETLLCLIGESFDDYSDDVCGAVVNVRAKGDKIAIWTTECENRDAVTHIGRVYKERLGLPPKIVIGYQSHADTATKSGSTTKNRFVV
compound,measurement,setting,value
CCN(CC)S(=O)(=O)c1cccc(C(=O)Nc2nc3cc4c(cc3s2)OCCO4)c1,EC50,Streptokinase A,> 150 µM (not active)
same,EC50,[1],1.08 µM (active)
same,EC50,Streptococcus,7.62 µM (active)
same,IC50,HEK293 [2],4.3 µM (active)
same,EC50,[3],4.53 µM (active)
same,IC50,HEK293 [4],3.47 µM (active)
same,IC50,HEK293 [5],9.78 µM (active)
same,IC50,HEK293 [6],> 20 µM (inactive)
same,EC50,HEK293 [7],3.29 µM (active)
Cc1cc2c(N=NC(=O)C3CC3c3ccccc3)c(O)[nH]c2cc1Br (stereo not given),EC50,[8],> 53 µM (inactive)
same,CC50,[9],32.8 µM (active)
same,IC50,[10],> 47.1 µM (inactive)
C=CCn1c(SCC(=O)NC(=O)NCc2ccco2)nc2sc(CC)cc2c1=O,IC50,Estrogen receptor beta [11],0.0317 µM (not active)
same,IC50,Estrogen receptor,10.1 µM (active)
same,IC50,Estrogen receptor beta [12],13.6 µM (active)
COc1cccc(/C=N/NC(=O)c2cnccn2)c1O,CC50,[13],> 40 µM (active)
same,CC50,[9],> 40 µM (active)
O=C(Oc1ccc(N2C(=O)CCC2=O)cc1)c1ccco1,AC50,[14],0.351 µM (inconclusive)
same,IC50,Estrogen receptor,> 50 µM (not active)
same,EC50,Protein RecA,0.388 µM (active)
O=CN1CCN(c2ncnc3c2nnn3Cc2c(F)cccc2Cl)CC1,EC50,[15],12.7 µM (inactive)
Cc1ccc(NC(=O)CN2C(=O)S/C(=C/c3ccc(-c4cc(C(=O)O)ccc4C)o3)C2=O)cc1C,IC50,[16],14.4 µM (active)
same,EC50,[1],2.31 µM (active)
same,EC50,Streptococcus,6.89 µM (active)
same,IC50,Estrogen receptor,18.2 µM (active)
same,IC50,[17],2.05 µM (active)
same,IC50,[18],11.3 µM (active)
O=C(CSc1nc2ccccc2o1)N1c2ccccc2Sc2ccc(Cl)cc21,AC50,Cytochrome P450 2C9,3.16 µM (inconclusive)
same,EC50,[15],> 32 µM (inactive)
O=C(Nc1cccc(Br)c1)c1ccc(Cl)c(S(=O)(=O)N2CCOCC2)c1,IC50,HEK293 [2],2.87 µM (active)
same,EC50,[3],> 20 µM (inactive)
same,IC50,HEK293 [4],3.44 µM (active)
same,IC50,HEK293 [5],6.44 µM (active)
same,IC50,HEK293 [6],> 20 µM (inactive)
same,EC50,HEK293 [7],10.3 µM (active)
